In patent publication US6794386B2, “β-amino acid compounds as integrin antagonists” (Bayer Aktiengesellschaft, priority 2000, dated 2004):

Target: T1, VLA-4 (Homo sapiens, UniProt P05556+P13612)
T1 construct: host or cells: Jurkat clone E6-1
Assay: Adhesion of Jurkat cells to immobilized VCAM-1 (domains 1-3)
Assay type: cell-based
Parameters: scale not given here
Conditions: adhesion of CFSE-labeled Jurkat cells to recombinant human VCAM-1 (domains 1-3) coated plates; compounds as yielded by solid phase synthesis, purity about 40-90%
Procedure, shortened: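 CFSE-labelled Jurkat E6-1 cells in Tris buffer pH 7.4 with 2 mM MnCl2 were added to wells coated with insect-cell-expressed human VCAM-1 domains 1-3 (0.5 μg/ml coating solution); labelled cells were incubated for 30 min at 37 °C with the VLA-4 inhibitor.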

T1 sequence (P13612 34-1032): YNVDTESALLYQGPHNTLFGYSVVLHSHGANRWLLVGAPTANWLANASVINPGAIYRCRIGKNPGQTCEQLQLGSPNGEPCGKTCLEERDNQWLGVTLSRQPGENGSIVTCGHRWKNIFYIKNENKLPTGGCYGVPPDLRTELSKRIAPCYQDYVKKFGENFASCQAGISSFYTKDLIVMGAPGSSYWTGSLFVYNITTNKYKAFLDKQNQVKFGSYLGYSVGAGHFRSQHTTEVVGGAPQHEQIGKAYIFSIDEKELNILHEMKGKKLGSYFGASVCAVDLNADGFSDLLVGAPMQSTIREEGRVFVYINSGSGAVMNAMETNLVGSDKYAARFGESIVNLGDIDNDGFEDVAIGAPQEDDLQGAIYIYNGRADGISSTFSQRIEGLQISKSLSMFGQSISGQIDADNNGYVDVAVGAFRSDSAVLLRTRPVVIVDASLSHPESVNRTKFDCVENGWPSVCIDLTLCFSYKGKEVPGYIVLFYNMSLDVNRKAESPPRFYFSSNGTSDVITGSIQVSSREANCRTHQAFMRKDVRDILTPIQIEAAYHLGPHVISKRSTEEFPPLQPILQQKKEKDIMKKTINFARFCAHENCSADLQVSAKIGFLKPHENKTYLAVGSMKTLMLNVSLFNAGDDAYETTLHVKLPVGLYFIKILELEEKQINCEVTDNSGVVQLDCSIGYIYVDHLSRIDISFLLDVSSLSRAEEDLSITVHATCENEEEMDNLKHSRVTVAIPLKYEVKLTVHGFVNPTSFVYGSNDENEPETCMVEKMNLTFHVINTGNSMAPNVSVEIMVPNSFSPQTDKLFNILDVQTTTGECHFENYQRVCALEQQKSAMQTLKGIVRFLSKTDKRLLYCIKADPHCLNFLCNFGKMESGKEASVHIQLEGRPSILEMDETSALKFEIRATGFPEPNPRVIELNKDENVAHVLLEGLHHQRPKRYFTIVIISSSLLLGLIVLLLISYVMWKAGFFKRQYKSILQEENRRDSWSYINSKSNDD
T1 sequence (P05556 21-798): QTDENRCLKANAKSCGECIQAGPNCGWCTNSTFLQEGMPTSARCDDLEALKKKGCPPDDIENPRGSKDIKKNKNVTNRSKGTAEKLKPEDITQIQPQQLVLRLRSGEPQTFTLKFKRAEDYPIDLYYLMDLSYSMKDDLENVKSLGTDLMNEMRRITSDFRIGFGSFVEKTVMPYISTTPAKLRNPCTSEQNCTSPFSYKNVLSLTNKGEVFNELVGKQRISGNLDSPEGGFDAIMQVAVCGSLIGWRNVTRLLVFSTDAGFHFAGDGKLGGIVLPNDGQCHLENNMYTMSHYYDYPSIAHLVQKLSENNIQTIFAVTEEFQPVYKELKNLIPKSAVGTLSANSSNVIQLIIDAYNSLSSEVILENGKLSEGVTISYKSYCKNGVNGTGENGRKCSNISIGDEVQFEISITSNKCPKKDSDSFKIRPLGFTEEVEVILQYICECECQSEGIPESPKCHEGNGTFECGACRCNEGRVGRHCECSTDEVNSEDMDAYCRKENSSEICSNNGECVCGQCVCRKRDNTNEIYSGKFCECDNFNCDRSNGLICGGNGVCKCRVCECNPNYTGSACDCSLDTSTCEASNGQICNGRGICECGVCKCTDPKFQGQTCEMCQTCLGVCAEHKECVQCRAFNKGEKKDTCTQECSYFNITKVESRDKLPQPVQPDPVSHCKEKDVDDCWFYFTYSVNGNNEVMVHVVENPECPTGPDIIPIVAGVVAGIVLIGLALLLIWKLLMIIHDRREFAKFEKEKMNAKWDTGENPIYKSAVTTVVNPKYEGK

Structure (SMILES)	IC50
Cc1ccc(C(=O)N2CCCC(C(=O)N[C@@H](Cc3ccc(-c4cc(Cl)ccc4Cl)cc3)C(=O)O)C2)cc1 (stereo partly drawn) [Example 1.51]	C-D
Cc1ccccc1-c1ccc(C[C@H](NC(=O)C2CCCN(S(=O)(=O)CC34CCC(CC3=O)C4(C)C)C2)C(=O)O)cc1 (stereo partly drawn) [Example 1.84]	C-D
COC(=O)c1ccccc1S(=O)(=O)N1CCCC(C(=O)N[C@@H](Cc2ccc(-c3cc(Cl)ccc3Cl)cc2)C(=O)O)C1 (stereo partly drawn) [Example 1.105]	C-D
Cc1ccc(-c2ccc(C[C@H](NC(=O)C3CCCN(C(=O)c4ccc5c(c4)OCO5)C3)C(=O)O)cc2)cc1 (stereo partly drawn) [Example 1.20]	C-D
O=C(N[C@@H](Cc1ccc(-c2ccccc2)cc1)C(=O)O)C1CCCN(C(=O)c2ccccc2Cl)C1 (stereo partly drawn) [Example 1.13]	C-D
COc1ccc(S(=O)(=O)N2CCCC(C(=O)N[C@@H](Cc3ccc(-c4ccccc4)cc3)C(=O)O)C2)cc1OC (stereo partly drawn) [Example 1.60]	C-D
COc1ccc(Cl)cc1S(=O)(=O)N1CCCC(C(=O)N[C@@H](Cc2ccc(-c3cc(Cl)ccc3Cl)cc2)C(=O)O)C1 (stereo partly drawn) [Example 1.110]	C-D
Cc1ccc(-c2ccc(C[C@H](NC(=O)C3CCCN(C(=O)c4ccccc4Cl)C3)C(=O)O)cc2)cc1 (stereo partly drawn) [Example 1.2, (2S)-2-({[1-(2-chlorobenzoyl)-3-piperidinyl]carbonyl}amino)-3-(4′-methyl[1,1′-biphenyl]-4-yl)propanoic acid]	C-D
Cc1ccc(-c2ccc(C[C@H](NC(=O)C3CCCN(C(=O)Oc4c(C)cc(C)cc4C)C3)C(=O)O)cc2)cc1 (stereo partly drawn) [Example 1.23]	C-D
O=C(N[C@@H](Cc1ccc(-c2ccccc2)cc1)C(=O)O)C1CCCN(S(=O)(=O)c2cc(Cl)cc(Cl)c2)C1 (stereo partly drawn) [Example 1.64]	C-D
COc1ccccc1C(=O)N1CCCC(C(=O)N[C@@H](Cc2ccc(-c3ccccc3)cc2)C(=O)O)C1 (stereo partly drawn) [Example 1.14]	C-D
O=C(N[C@@H](Cc1ccc(-c2ccc(Cl)cc2Cl)cc1)C(=O)O)C1CCCN(C(=O)Cc2ccccc2)C1 (stereo partly drawn) [Example 1.40]	C-D
O=C(N[C@@H](Cc1ccc(-c2ccccc2)cc1)C(=O)O)C1CCCN(C(=O)c2ccc3c(c2)OCO3)C1 (stereo partly drawn) [Example 1.10]	C-D
COc1ccc(-c2ccc(C[C@H](NC(=O)C3CCCN(S(=O)(=O)c4ccc5ccccc5c4)C3)C(=O)O)cc2)cc1 (stereo partly drawn) [Example 1.78]	C-D
COc1ccc(Cl)cc1S(=O)(=O)N1CCCC(C(=O)N[C@@H](Cc2ccc(-c3ccc(C)cc3)cc2)C(=O)O)C1 (stereo partly drawn) [Example 1.72]	C-D
COc1ccc(-c2ccc(C[C@H](NC(=O)C3CCCN(C(=O)OC4CCCC4)C3)C(=O)O)cc2)cc1 (stereo partly drawn) [Example 1.29]	C-D
O=C(N[C@@H](Cc1ccc(-c2ccc(Cl)cc2Cl)cc1)C(=O)O)C1CCCN(S(=O)(=O)Cc2ccccc2)C1 (stereo partly drawn) [Example 1.101]	C-D

Continued, values first:

IC50	Structure (SMILES)
C-D	Cc1ccccc1-c1ccc(C[C@H](NC(=O)C2CCCN(c3ncnc(N(C)Cc4ccccc4)c3F)C2)C(=O)O)cc1 (stereo partly drawn) [Example 2.28]
C-D	CCCCN(C)c1ncnc(N2CCCC(C(=O)N[C@@H](Cc3ccc(-c4ccc(C)cc4)cc3)C(=O)O)C2)c1F (stereo partly drawn) [Example 2.13]
C-D	COc1ccc(-c2ccc(C[C@H](NC(=O)C3CCCN(c4ncnc(NCCN5CCCC5)c4F)C3)C(=O)O)cc2)cc1 (stereo partly drawn) [Example 2.22]
C-D	COc1ccc(-c2ccc(C[C@H](NC(=O)C3CCCN(c4ncnc(N5CCNCC5)c4F)C3)C(=O)O)cc2)cc1 (stereo partly drawn) [Example 2.19]
C-D	Cc1ccc(-c2ccc(C[C@H](NC(=O)C3CCCN(c4ncnc(N5CCCCC5)c4F)C3)C(=O)O)cc2)cc1 (stereo partly drawn) [Example 2.6]
C-D	Cc1ccc(-c2ccc(C[C@H](NC(=O)C3CCCN(c4ncnc(NCCN5CCCC5)c4F)C3)C(=O)O)cc2)cc1 (stereo partly drawn) [Example 2.12]
A-B	CCCCN(C)c1ncnc(N2CCCC(C(=O)N[C@@H](Cc3ccc(-c4cc(Cl)ccc4Cl)cc3)C(=O)O)C2)c1F (stereo partly drawn) [Example 2.40]
C-D	O=C(N[C@@H](Cc1ccc(-c2ccc(Cl)c(Cl)c2)cc1)C(=O)O)C1CCCN(c2ncnc(N3CCOCC3)c2F)C1 (stereo partly drawn) [Example 2.44]
C-D	CCCNc1ncnc(N2CCCC(C(=O)N[C@@H](Cc3ccc(-c4ccc(OC)cc4)cc3)C(=O)O)C2)c1F (stereo partly drawn) [Example 2.20]
C-D	O=C(N[C@@H](Cc1ccc(-c2ccc(Cl)c(Cl)c2)cc1)C(=O)O)C1CCCN(c2ncnc(NCCN3CCCC3)c2F)C1 (stereo partly drawn) [Example 2.49]
C-D	COc1ccc(-c2ccc(C[C@H](NC(=O)C3CCCN(c4ncnc(N5CCOCC5)c4F)C3)C(=O)O)cc2)cc1 (stereo partly drawn) [Example 2.17]
C-D	Cc1ccccc1-c1ccc(C[C@H](NC(=O)C2CCCN(c3ncnc(N4CCOCC4)c3F)C2)C(=O)O)cc1 (stereo partly drawn) [Example 2.27]
C-D	CCCCN(C)c1ncnc(N2CCCC(C(=O)N[C@@H](Cc3ccc(-c4ccc(Cl)c(Cl)c4)cc3)C(=O)O)C2)c1F (stereo partly drawn) [Example 2.50]
C-D	CCCNc1ncnc(N2CCCC(C(=O)N[C@@H](Cc3ccc(-c4ccc(C)cc4)cc3)C(=O)O)C2)c1F (stereo partly drawn) [Example 2.10]

Same assay, conditions: adhesion of CFSE-labeled Jurkat cells to recombinant human VCAM-1 (domains 1-3) coated plates; compounds as yielded by solid phase synthesis, purity about 40-90%; read-out: IC50

Structure (SMILES)	IC50 [nM]
Cc1ccc(C(=O)N2CCCC(C(=O)N[C@@H](Cc3ccc(-c4ccccc4C)cc3)C(=O)O)C2)cc1 (stereo partly drawn) [Example 1.32]	2000 to 10000
COc1ccccc1C(=O)N1CCCC(C(=O)N[C@@H](Cc2ccc(-c3ccccc3C)cc2)C(=O)O)C1 (stereo partly drawn) [Example 1.37]	500 to 2000
Cc1ccc(S(=O)(=O)N2CCCC(C(=O)N[C@@H](Cc3ccc(-c4ccccc4)cc3)C(=O)O)C2)cc1 (stereo partly drawn) [Example 1.56]	500 to 2000
O=C(N[C@@H](Cc1ccc(-c2cc(Cl)ccc2Cl)cc1)C(=O)O)C1CCCN(C(=O)c2cccc(Cl)c2)C1 (stereo partly drawn) [Example 1.50]	2000 to 10000

Results, then the compound that gave them:

IC50 [nM]	Structure (SMILES)
500 to 2000	COCCN(C)c1ncnc(N2CCCC(C(=O)N[C@@H](Cc3ccc(NC(=O)N4CCN(c5ccccc5)CC4)cc3)C(=O)O)C2)c1F (stereo partly drawn) [Example 5.46]
500 to 2000	O=C(N[C@@H](Cc1ccc(NC(=O)N2CCCCC2)cc1)C(=O)O)C1CCCN(S(=O)(=O)Cc2ccccc2)C1 (stereo partly drawn) [Example 4.7]
500 to 2000	CN1CCN(C(=O)Nc2ccc(C[C@H](NC(=O)C3CCCN(c4ncnc(N5CCCCCC5)c4F)C3)C(=O)O)cc2)CC1 (stereo partly drawn) [Example 5.20]
500 to 2000	CN1CCN(C(=O)Nc2ccc(C[C@H](NC(=O)C3CCCN(S(=O)(=O)Cc4ccccc4)C3)C(=O)O)cc2)CC1 (stereo partly drawn) [Example 4.28]
≤ 500	COc1ccc(S(=O)(=O)N2CCCC(C(=O)N[C@@H](Cc3ccc(NC(=O)N4CCN(C)CC4)cc3)C(=O)O)C2)cc1OC (stereo partly drawn) [Example 4.6]
≤ 500	Nc1ncnc(N2CCCC(C(=O)N[C@@H](Cc3ccc(NC(=O)N4CCN(c5ccccc5)CC4)cc3)C(=O)O)C2)c1F (stereo partly drawn) [Example 5.42]
≤ 500	Cc1ccc(S(=O)(=O)N2CCCC(C(=O)N[C@@H](Cc3ccc(NC(=O)N4CCN(C)CC4)cc3)C(=O)O)C2)cc1 (stereo partly drawn) [Example 4.11]
500 to 2000	CN(c1ncnc(N2CCCC(C(=O)N[C@@H](Cc3ccc(NC(=O)N4CCOCC4)cc3)C(=O)O)C2)c1F)C1CCCCC1 (stereo partly drawn) [Example 5.36]
500 to 2000	O=C(N[C@@H](Cc1ccc(NC(=O)N2CCN(c3ccccc3)CC2)cc1)C(=O)O)C1CCCN(c2ncnc(NCc3cccnc3)c2F)C1 (stereo partly drawn) [Example 5.30]
500 to 2000	CN1CCN(C(=O)Nc2ccc(C[C@H](NC(=O)C3CCCN(C(=O)c4ccc(OC(F)(F)F)cc4)C3)C(=O)O)cc2)CC1 (stereo partly drawn) [Example 4.3]
≤ 500	COc1ccc(S(=O)(=O)N2CCCC(C(=O)NC(Cc3ccc(NC(=O)N4CCc5ccccc5C4)cc3)C(=O)O)C2)cc1OC (stereo not drawn) [Example 4.48]
2000 to 10000	O=C(N[C@@H](Cc1ccc(NC(=O)N2CCN(c3ccccc3)CC2)cc1)C(=O)O)C1CCCN(c2ncnc(N3CCCC3)c2F)C1 (stereo partly drawn) [Example 5.10]
≤ 500	O=C(N[C@@H](Cc1ccc(NC(=O)N2CCOCC2)cc1)C(=O)O)C1CCCN(S(=O)(=O)c2cc(Cl)cc(Cl)c2)C1 (stereo partly drawn) [Example 4.29]
500 to 2000	O=C(N[C@@H](Cc1ccc(NC(=O)N2CCOCC2)cc1)C(=O)O)C1CCCN(C(=O)Nc2ccccc2F)C1 (stereo partly drawn) [Example 4.61]
2000 to 10000	COc1ccc(S(=O)(=O)N2CCCC(C(=O)N[C@@H](Cc3ccc(NC(=O)NC4CCN(Cc5ccccc5)CC4)cc3)C(=O)O)C2)cc1OC (stereo partly drawn) [Example 4.40]
500 to 2000	O=C(N[C@@H](Cc1ccc(-c2cc(Cl)ccc2Cl)cc1)C(=O)O)C1CCCN(c2ncnc(NCCN3CCCC3)c2F)C1 (stereo partly drawn) [Example 2.39]
500 to 2000	CN1CCN(C(=O)Nc2ccc(C[C@H](NC(=O)C3CCCN(c4ncnc(NCCc5ccccc5)c4F)C3)C(=O)O)cc2)CC1 (stereo partly drawn) [Example 5.25]
2000 to 10000	Cc1ccc(-c2ccc(C[C@H](NC(=O)C3CCCN(c4ncnc(NCc5ccccn5)c4F)C3)C(=O)O)cc2)cc1 (stereo partly drawn) [Example 2.4]
≤ 500	Cc1ccc(S(=O)(=O)N2CCCC(C(=O)N[C@@H](Cc3ccc(NC(=O)N4CCOCC4)cc3)C(=O)O)C2)cc1 (stereo partly drawn) [Example 4.43]
500 to 2000	O=C(N[C@@H](Cc1ccc(NC(=O)N2CCN(c3ccccc3)CC2)cc1)C(=O)O)C1CCCN(c2ncnc(NCc3ccncc3)c2F)C1 (stereo partly drawn) [Example 5.37]
2000 to 10000	O=C(N[C@@H](Cc1ccc(NC(=O)N2CCN(c3ccccc3)CC2)cc1)C(=O)O)C1CCCN(c2ncnc(NCCc3ccccc3)c2F)C1 (stereo partly drawn) [Example 5.26]
2000 to 10000	COc1ccccc1-c1ccc(C[C@H](NC(=O)C2CCCN(c3ncnc(N4CCOCC4)c3F)C2)C(=O)O)cc1 (stereo partly drawn) [Example 2.53]
500 to 2000	CN1CCN(C(=O)Nc2ccc(C[C@H](NC(=O)C3CCCN(C(=O)NCc4ccccc4)C3)C(=O)O)cc2)CC1 (stereo partly drawn) [Example 4.62]
≤ 500	O=C(N[C@@H](Cc1ccc(NC(=O)N2CCOCC2)cc1)C(=O)O)C1CCCN(c2ncnc(NCC3CCCCC3)c2F)C1 (stereo partly drawn) [Example 5.35]
500 to 2000	CN1CCN(C(=O)Nc2ccc(C[C@H](NC(=O)C3CCCN(c4ncnc(NCc5ccccc5)c4F)C3)C(=O)O)cc2)CC1 (stereo partly drawn) [Example 5.11]
